Legend:
Assay in all cases: Test F pre-/postemergence herbicide test
Details in all cases: 125 g ai/ha
[1] = tested on: annual blugrass; assay type: in vivo, Poa annua
Excerpt: (§1) Seeds of plant species selected from annual blugrass (Poa annua L.), blackgrass (Alopecurus myosuroides Huds.), catchweed bedstraw (Gallium aparine L.), common chickweed (Stellaria media (L.) Vill./Cyr.), downy bromegrass (Bromus tectorum L.), green foxtail (Setaria viridis (L.) Beauv.), Italian ryegrass (Lolium multiflorum Lam.), kochia (Kochia scoparia (L.). Schrad.), lambsquarters (Chenopodium album L.), littleseed canarygrass (Phalaris minor Retz.), pigweed (Amaranthus retroflexus L.), Russian thistle (Salsola kali L. ssp. Ruthenica (Iljin) Soo), wild buckwheat (Polygonum convolvulus L.), wild mustard (Sinapis arvensis L.), wild oat (Avena fatua L.), windgrass (Apera spica-venti (L.) Beauv.), winter barley (Hordeum vulgare L.), and wheat (Triticum aestivum L.) were planted and treated preemergence with test chemicals formulated in a non-phytotoxic solvent mixture which included a surfactant.
(§2) At the same time, plants selected from these crop and weed species were treated with postemergence applications of some of the test chemicals formulated in the same manner. Plants ranged in height from 2 to 18 cm (1- to 4-leaf stage) for postemergence treatments. Treated plants and controls were maintained in a greenhouse for 12 to 14 days, after which time all species were compared to controls and visually evaluated. Plant response ratings, summarized in Table F, are based on a scale of 0 to 100 where 0 is no effect and 100 is complete control. A dash (-) response means no test result.

[2] = tested on: catchweed bedstraw; assay type: in vivo, Gallium aparine
Excerpt: as §1, §2

[3] = tested on: common chickweed; assay type: in vivo, Stellaria media
Excerpt: as §1, §2

[4] = tested on: Italian ryegrass; assay type: in vivo, Lolium multiflorum
Excerpt: as §1, §2

[5] = tested on: kochia; assay type: in vivo, Kochia scoparia
Excerpt: as §1, §2

[6] = tested on: lambsquarters; assay type: in vivo, Chenopodium album
Excerpt: as §1, §2

[7] = tested on: littleseed canarygrass; assay type: in vivo, Phalaris minor
Excerpt: as §1, §2

[8] = tested on: pigweed; assay type: in vivo, Amaranthus retroflexus
Excerpt: as §1, §2

[9] = tested on: wild mustard; assay type: in vivo, Sinapis arvensis
Excerpt: as §1, §2

[10] = tested on: wild oat; assay type: in vivo, Avena fatua
Excerpt: as §1, §2

[11] = tested on: wheat; assay type: in vivo, Triticum aestivum
Excerpt: as §1, §2

CCc1nn(C(C)(C)C)cc1C(=O)Nc1cc(C(=O)N(CC)CC)ccc1F [Compound 223]
Plant response rating (0-100), Bluegrass ([1]; Postemergence): 50 | Plant response rating (0-100), Bluegrass ([1]; Preemergence): 100 | Plant response rating (0-100), Galium ([2]; Postemergence): 60 | Plant response rating (0-100), Galium ([2]; Preemergence): 50 | Plant response rating (0-100), Chickweed ([3]; Postemergence): 60 | Plant response rating (0-100), Chickweed ([3]; Preemergence): 100 | Plant response rating (0-100), Ryegrass, Italian ([4]; Postemergence): 45 | Plant response rating (0-100), Ryegrass, Italian ([4]; Preemergence): 65 | Plant response rating (0-100), Kochia ([5]; Postemergence): 75 | Plant response rating (0-100), Kochia ([5]; Preemergence): 75 | Plant response rating (0-100), Lambsquarters ([6]; Postemergence): 65 | Plant response rating (0-100), Lambsquarters ([6]; Preemergence): 95 | Plant response rating (0-100), Canarygrass ([7]; Postemergence): 40 | Plant response rating (0-100), Canarygrass ([7]; Preemergence): 50 | Plant response rating (0-100), Pigweed ([8]; Postemergence): 65 | Plant response rating (0-100), Pigweed ([8]; Preemergence): 100 | Plant response rating (0-100), Mustard, Wild ([9]; Postemergence): 65 | Plant response rating (0-100), Mustard, Wild ([9]; Preemergence): 100 | Plant response rating (0-100), Oat, Wild ([10]; Postemergence): 35 | Plant response rating (0-100), Oat, Wild ([10]; Preemergence): 70 | Plant response rating (0-100), Wheat ([11]; Postemergence): 0 | Plant response rating (0-100), Wheat ([11]; Preemergence): 0

— US20060069132A1, “Azolecarboxamide herbicides” (priority 2004, published 2006)
